Legend:
HER2 kinase = biological target: T1, HER2 kinase (Homo sapiens, UniProt P04626); assay: HER2 kinase assay (ULight/PT66 TR-FRET); assay type: biochemical
T1 construct: purchased Carna Biosciences 08-016
Outline: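 HER2 kinase preincubated 5 min with compounds (11-point 3-fold series, duplicates), then reacted 120 min at room temperature with ATP and ULight-poly GT peptide, each prepared at 4× working concentration (40 μM ATP, 400 nM substrate, 40 nM kinase). PT66 antibody added for 60 min, TR-FRET read; IC50 from inhibition curves.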

EGFR^WT kinase = EGFR^WT kinase (Homo sapiens, UniProt P00533); assay: EGFR^WT kinase assay (ULight/PT66 TR-FRET); assay type: biochemical
Outline: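 Enzyme preincubated 5 min with compound (11-point 3-fold series, duplicate), then ULight-JAK-1 (Tyr1023) peptide and ATP added at 4× stocks of 400 nM and 600 μM; 120 min reaction at room temperature. PT66 antibody TR-FRET read after 60 min; IC50 fitted from inhibition rates.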

NCI-N87 cells = assay: Inhibition of cell proliferation, CTG method, NCI-N87; assay type: cell-based; conditions: Homo sapiens, 72 hours, read-out: hNCI-N87 IC50
Excerpt: (§1) The present application examined the in vitro anti-proliferative activity of the compounds of the present disclosure against in vitro cultured BT474, NCI-N87, Ba/F3-EGFR-VIII and Ba/F3 HER2 A775_G776insYVMA and Ba/F3 EGFR D770_N771insSVD cell lines by CTG method.
(§2) Reagents and consumables: RPMI1640 (ThermoFisher, Cat. No. C11875500BT); fetal bovine serum (Hyclone, Cat. No. SV30087.03); 0.25% trypsin-EDTA (ThermoFisher, Cat. No. 25200-072); penicillin-streptomycin (Hyclone, Cat. No. SV30010); DMSO (Amresco, Cat. No. 0231-500ML); CTG assay kit (Promega, Cat. No. G924C); 96-well plate (Corning, Cat. No. 3603); multifunctional plate reader (Perkin Elmer, Cat. No. Envision)
(§3) Cell lines: BT474 (from the cell bank of Chinese Academy of Sciences), NCI-N87 (from ATCC), Ba/F3-EGFR-VIII, Ba/F3 HER2 A775_G776insYVMA and Ba/F3 EGFR D770_N771insSVD (all from KYinno Biotechnology (Beijing) Co., Ltd.); all of the above cells were cultured with RPMI1640 medium containing 10% fetal bovine serum, 100 U/mL penicillin, and 100 μg/mL streptomycin in the culture process.
(§4) 1. The assay compound was dissolved with DMSO to form a stock solution and a gradient dilution was performed, followed by dilution with the corresponding medium to obtain a solution with 5-fold working concentration.
(§5) 2. Cells in logarithmic growth phase were adjusted to specific cell densities by dilution with culture medium, and 80 μL of cell suspension was added to a 96-well plate, such that plating densities of cells of BT474, NCI-N87, Ba/F3-EGFR-VIII, Ba/F3 HER2 A775_G776insYVMA and Ba/F3 EGFR D770_N771insSVD were all 3000 cells/well. The cells of Ba/F3-EGFR-VIII, Ba/F3 HER2 A775_G776insYVMA and Ba/F3 EGFR D770_N771insSVD were used directly in the next step (treatment with compound), whereas the BT474 and NCI-N87 needed to be cultured overnight in a 37° C., 5% carbon dioxide gas incubator to adhere to the wall, and then treated with compounds.
(§6) 3. 20 μL of compound solution was added to each well of the 96-well plate that had been inoculated with cells. The highest concentration of the assayed compound was 10 μM, 4-fold serial dilution, a total of 9 concentrations, and duplicate wells. A control group without compound was also set up.
(§7) 4. The cells were cultured for another 72 hours, and then cell viability was detected by CTG assay kit. Signal values were read with a multifunctional plate reader (Perkin Elmer). GraphPad Prism software was used to create a dose-response curve and IC50 was calculated.

[1] = biological target: Ba/F3 HER2 A775_G776insYVMA cells (Homo sapiens, UniProt P04626, DUP772-775, cells depend on it); assay: Inhibition of cell proliferation, CTG method, Ba/F3 HER2 A775_G776insYVMA; assay type: cell-based; conditions: 72 hours, read-out: Ba/F3 HER2 A775-G776insYVMA IC50
Outline: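 Ba/F3 HER2 A775_G776insYVMA cells in RPMI1640 with 10% FBS were plated at 3000 cells/well and treated directly with compound (top 10 μM, 4-fold, 9 concentrations, duplicates).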

Ba/F3-EGFR-VIII cells = Ba/F3-EGFR-VIII cells (Homo sapiens, UniProt P00533, DELINS30-297G, cells depend on it); assay: Inhibition of cell proliferation, CTG method, Ba/F3-EGFR-VIII; assay type: cell-based; conditions: 72 hours, read-out: Ba/F3 EGFRvIII IC50
Excerpt: as §1, §2, §3
1. […]
as §7

[2] = biological target: Ba/F3 EGFR D770_N771insSVD cells (Homo sapiens, UniProt P00533, DUP768-770, cells depend on it); assay: Inhibition of cell proliferation, CTG method, Ba/F3 EGFR D770_N771insSVD; assay type: cell-based; conditions: 72 hours, read-out: Ba/F3 EGFR D770_N771insSVD IC50
Excerpt: as §1, §2, §3, §4, §5, §6, §7

BT474 cells = assay: Inhibition of cell proliferation, CTG method, BT474; assay type: cell-based; conditions: Homo sapiens, BT-474, 72 hours, read-out: hBT474 IC50
Excerpt: as §1, §2, §3
1. […]
as §7

[3] = tested on: Ba/F3 ERBB2 A775_G776insYVMA; assay: Efficacy in nude mouse tumor-bearing model of Ba/F3 ERBB2 A775_G776insYVMA; assay type: in vivo, BALB/c nude mice; conditions: 30 mg/kg, QD×15, PO; day 15
Protocol: In this assay, some compounds of the application were orally administered to a nude mouse tumor-bearing model of Ba/F3 ERBB2 A775_G776insYVMA to study the effect of the compounds of the application on tumor growth.
Preparation of the assay compound: an appropriate weight of the compound to be assayed was weighed, and completely dissolved in an appropriate volume of vehicle (DMSO). The mixture was vortexed or sonicated. Then an appropriate amount of Solutol was added and mixed well. Finally, sterilized drinking water was added and the mixture was mixed by stirring or vortexing to obtain a homogeneous solution or suspension.
Method: All the assays were authorized and agreed by the Animal Welfare Committee. Ba/F3 ERBB2 A775_G776insYVMA in a logarithmic growth period was inoculated subcutaneously into the right back of immunodeficient nude mice (BALB/c nude, female, 6-7 weeks of age, body weight 18±2 g) with 4×10^6 cells/rat. After the tumor grew to 150-200 mm^3, the animals were randomly divided into a treatment group and a control group. For the treatment group, a solution of each assay compound was given, and for the control group, a vehicle solution without the assay compound was given. Both of the treatment group and the control group were administered once a day for about 2 weeks. The dose of each assay article was 30 mg/kg (in terms of effective compound concentration), and the assay compounds were all prepared freshly for use. During the assay, the diameter of loaded tumors was measured twice a week, and the mice were weighed at the same time. The tumor volume (TV) was calculated by the formula: TV=½×a×b^2, where a and b denote length and width, respectively. Relative tumor volume (RTV) was calculated based on the measured results by the formula: RTV=Vt/V0, where V0 is the tumor volume measured at grouping and administration and Vt is the tumor volume at each measurement. The evaluation index of antitumor activity was the relative tumor proliferation rate T/C (%) calculated by the formula: T/C (%)=(TRTV/CRTV)×100%, TRTV: RTV of the administration group; CRTV: RTV of the control group. T and C denote the average tumor volume at a certain time point in the administration group and the control group, respectively.

Chain of EGFR^WT kinase (P00533 25-1210): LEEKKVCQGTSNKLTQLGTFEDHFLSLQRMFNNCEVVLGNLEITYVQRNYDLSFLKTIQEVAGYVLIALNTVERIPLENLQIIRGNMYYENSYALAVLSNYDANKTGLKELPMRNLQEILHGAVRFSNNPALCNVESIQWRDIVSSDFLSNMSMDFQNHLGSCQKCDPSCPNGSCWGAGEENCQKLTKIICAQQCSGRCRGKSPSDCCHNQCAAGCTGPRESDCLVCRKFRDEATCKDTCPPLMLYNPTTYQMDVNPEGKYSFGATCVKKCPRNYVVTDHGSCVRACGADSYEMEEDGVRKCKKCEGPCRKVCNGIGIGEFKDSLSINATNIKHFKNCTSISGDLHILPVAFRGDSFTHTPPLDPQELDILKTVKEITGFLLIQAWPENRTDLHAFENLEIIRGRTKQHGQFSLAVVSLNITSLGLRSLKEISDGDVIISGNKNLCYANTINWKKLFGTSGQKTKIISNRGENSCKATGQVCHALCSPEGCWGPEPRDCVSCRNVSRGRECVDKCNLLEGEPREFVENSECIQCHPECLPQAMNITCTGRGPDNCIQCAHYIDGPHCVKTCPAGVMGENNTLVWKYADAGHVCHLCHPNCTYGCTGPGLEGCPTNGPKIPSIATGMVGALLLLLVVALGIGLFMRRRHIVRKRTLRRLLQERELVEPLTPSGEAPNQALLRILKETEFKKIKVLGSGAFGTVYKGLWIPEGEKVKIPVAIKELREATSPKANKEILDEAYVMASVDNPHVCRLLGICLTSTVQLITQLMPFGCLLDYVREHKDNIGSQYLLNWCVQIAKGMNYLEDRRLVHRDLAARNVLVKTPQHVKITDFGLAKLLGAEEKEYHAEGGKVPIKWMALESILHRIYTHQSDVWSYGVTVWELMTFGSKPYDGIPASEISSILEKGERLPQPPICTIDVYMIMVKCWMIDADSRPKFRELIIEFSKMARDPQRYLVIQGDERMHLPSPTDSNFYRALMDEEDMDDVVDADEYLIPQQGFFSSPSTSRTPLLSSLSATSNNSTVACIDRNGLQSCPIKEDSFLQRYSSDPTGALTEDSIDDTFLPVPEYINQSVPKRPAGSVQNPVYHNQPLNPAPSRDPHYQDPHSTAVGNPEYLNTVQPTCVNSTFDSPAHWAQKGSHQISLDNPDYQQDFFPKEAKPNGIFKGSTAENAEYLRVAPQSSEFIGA
T1 sequence (P04626 23-1255): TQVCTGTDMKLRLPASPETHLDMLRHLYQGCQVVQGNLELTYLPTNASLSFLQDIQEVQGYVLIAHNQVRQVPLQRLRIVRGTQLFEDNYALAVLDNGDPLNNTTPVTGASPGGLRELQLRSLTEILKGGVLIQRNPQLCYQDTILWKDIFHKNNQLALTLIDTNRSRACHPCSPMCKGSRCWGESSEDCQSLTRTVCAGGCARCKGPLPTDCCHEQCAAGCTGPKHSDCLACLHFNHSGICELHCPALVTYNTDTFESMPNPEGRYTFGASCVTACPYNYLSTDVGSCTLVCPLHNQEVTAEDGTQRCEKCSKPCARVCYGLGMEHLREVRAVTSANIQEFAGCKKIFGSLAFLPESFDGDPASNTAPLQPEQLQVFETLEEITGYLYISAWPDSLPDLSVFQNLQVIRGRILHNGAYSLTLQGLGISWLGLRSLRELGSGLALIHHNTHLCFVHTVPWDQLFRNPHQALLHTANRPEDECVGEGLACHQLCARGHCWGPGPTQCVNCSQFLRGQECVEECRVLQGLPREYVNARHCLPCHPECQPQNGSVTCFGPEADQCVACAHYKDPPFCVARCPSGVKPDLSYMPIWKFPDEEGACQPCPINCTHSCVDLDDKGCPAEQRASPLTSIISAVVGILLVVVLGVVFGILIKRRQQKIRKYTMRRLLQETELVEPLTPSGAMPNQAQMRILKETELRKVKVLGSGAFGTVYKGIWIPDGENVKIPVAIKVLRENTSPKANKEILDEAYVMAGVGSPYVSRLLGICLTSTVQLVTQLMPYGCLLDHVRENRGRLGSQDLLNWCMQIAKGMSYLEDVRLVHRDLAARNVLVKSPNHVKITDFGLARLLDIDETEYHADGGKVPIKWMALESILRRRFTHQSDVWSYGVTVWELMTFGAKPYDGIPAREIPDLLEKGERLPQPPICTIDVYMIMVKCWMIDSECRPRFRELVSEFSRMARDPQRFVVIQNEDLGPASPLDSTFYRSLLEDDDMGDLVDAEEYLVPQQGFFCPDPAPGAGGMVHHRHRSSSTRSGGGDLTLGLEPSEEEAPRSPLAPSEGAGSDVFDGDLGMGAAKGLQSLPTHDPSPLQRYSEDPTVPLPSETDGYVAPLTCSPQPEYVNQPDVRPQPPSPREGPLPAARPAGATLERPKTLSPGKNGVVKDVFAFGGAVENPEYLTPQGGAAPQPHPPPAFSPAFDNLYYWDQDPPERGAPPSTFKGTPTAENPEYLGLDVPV
Chain of Ba/F3 HER2 A775_G776insYVMA cells (P04626 with tags, fused parts or gaps DUP772-775): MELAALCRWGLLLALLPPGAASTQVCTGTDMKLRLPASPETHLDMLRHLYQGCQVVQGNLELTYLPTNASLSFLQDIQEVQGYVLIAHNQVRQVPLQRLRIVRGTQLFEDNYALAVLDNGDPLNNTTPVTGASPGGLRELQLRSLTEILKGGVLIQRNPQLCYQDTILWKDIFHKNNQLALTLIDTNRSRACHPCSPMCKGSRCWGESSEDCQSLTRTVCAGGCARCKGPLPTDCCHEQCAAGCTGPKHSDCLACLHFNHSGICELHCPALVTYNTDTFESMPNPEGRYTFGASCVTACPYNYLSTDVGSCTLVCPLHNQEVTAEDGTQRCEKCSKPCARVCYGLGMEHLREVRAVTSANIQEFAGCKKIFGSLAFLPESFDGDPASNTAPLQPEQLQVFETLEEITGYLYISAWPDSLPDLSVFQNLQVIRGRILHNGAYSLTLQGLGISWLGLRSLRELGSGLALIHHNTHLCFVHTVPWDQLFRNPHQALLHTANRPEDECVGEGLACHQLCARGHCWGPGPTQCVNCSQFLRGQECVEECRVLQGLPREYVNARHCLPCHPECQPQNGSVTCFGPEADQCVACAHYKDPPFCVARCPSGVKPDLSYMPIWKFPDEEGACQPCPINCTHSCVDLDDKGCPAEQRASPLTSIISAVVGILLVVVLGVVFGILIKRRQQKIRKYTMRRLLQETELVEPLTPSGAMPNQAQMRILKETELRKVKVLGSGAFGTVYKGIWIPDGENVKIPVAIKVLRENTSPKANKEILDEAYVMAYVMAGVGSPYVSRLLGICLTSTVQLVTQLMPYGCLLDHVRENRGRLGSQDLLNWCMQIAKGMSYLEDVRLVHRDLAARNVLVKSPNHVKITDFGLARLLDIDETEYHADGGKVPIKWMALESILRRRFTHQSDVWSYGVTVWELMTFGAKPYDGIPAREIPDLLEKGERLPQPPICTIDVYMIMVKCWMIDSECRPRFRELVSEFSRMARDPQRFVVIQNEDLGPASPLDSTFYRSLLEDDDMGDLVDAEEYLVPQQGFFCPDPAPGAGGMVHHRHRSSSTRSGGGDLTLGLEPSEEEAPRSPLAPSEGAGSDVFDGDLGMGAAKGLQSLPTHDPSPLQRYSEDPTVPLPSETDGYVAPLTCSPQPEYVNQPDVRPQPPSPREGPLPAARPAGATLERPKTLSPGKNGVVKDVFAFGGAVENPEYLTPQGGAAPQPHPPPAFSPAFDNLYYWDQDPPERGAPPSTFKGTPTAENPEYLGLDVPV
Chain of Ba/F3 EGFR D770_N771insSVD cells (P00533 with tags, fused parts or gaps DUP768-770): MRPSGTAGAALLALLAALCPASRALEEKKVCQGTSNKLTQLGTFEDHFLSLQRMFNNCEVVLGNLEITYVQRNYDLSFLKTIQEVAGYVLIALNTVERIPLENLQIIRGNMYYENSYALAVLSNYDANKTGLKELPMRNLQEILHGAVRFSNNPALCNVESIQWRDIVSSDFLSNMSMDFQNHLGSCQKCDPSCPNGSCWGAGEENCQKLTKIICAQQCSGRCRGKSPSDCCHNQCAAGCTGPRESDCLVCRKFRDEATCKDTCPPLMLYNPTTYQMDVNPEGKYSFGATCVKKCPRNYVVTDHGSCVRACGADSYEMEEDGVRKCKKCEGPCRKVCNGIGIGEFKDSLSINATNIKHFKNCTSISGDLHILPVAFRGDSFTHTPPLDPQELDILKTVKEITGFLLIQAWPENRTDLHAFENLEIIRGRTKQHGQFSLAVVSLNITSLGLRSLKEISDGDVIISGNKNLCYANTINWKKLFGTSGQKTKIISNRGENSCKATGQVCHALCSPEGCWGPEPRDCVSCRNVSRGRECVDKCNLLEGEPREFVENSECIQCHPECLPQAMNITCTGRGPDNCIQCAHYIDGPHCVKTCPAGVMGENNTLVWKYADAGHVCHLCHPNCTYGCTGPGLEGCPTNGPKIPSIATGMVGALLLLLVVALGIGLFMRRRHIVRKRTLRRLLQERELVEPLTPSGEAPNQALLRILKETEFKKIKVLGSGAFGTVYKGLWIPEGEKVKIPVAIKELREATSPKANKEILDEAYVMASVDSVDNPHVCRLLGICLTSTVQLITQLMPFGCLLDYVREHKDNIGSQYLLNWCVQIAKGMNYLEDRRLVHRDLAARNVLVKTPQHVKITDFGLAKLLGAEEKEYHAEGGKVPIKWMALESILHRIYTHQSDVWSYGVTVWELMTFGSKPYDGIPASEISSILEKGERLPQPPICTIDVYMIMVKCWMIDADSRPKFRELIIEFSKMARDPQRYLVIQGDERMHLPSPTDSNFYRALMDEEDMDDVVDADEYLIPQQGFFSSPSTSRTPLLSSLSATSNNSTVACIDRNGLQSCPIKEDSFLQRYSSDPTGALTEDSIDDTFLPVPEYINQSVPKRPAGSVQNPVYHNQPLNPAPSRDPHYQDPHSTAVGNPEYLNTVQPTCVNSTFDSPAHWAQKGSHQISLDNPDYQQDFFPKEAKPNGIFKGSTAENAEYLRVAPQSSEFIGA

SMILES	IC50 (HER2 kinase) [nM]	IC50 (EGFR^WT kinase) [nM]	IC50 (NCI-N87 cells) [nM]	GI50 [1] [nM]	GI50 (Ba/F3-EGFR-VIII cells) [nM]	GI50 [2] [nM]	IC50 (BT474 cells) [nM]	T/C (%) [3] [%]
COc1c(NC(=O)/C=C/CN(C)C)ccc2ncnc(Nc3ccc(OCc4ccccn4)c(Cl)c3)c12 [Example 1, (E)-N-(4-((3-chloro-4-(pyridin-2-ylmethoxy)phenyl)amino)-5-methoxyquinazolin-6-yl)-4-(dimethylamino)but-2-enamide]	< 10	< 10	1 to 5	1 to 5	1 to 5			
COc1c(NC(=O)/C=C/CN(C)C)ccc2ncnc(Nc3ccc(OCc4cccc(F)c4)c(Cl)c3)c12 [Example 2, (E)-N-(4-((3-chloro-4-(3-fluorobenzyloxy)phenyl)amino)-5-methoxyquinazolin-6-yl)-4-(dimethylamino)but-2-enamide]	< 10	< 10	1 to 5	1 to 5		10 to 100		
CCOc1c(NC(=O)/C=C/[C@H]2CCCN2C)ccc2ncnc(Nc3ccc(OCc4ccccn4)c(Cl)c3)c12 [Example 5, (R,E)-N-(4-((3-chloro-4-(pyridin-2-ylmethoxy)phenyl)amino)-5-ethoxyquinazolin-6-yl)-3-(1-methylpyrrolidin-2-yl)acrylamide]	< 10	10 to 100	1 to 5	< 1			10 to 100	
COCCOc1c(NC(=O)/C=C/[C@H]2CCCN2C)ccc2ncnc(Nc3ccc(OCc4ccccn4)c(Cl)c3)c12 [Example 8, (R,E)-N-(4-((3-chloro-4-(pyridin-2-ylmethoxy)phenyl)amino)-5-(2-methoxyethoxy)quinazolin-6-yl)-3-(1-methylpyrrolidin-2-yl)acrylamide]	< 10	< 10		1 to 5		10 to 100		5.83
CCN1CCC[C@@H]1/C=C/C(=O)Nc1ccc2ncnc(Nc3ccc(OCc4cccc(F)c4)c(Cl)c3)c2c1OC [Example 28, (R,E)-N-(4-((3-chloro-4-(3-fluorobenzyloxy)phenyl)amino)-5-methoxyquinazolin-6-yl)-3-(1-ethylpyrrolidin-2-yl)acrylamide]	< 10	< 10		1 to 5		10 to 100		

Source: patent publication US20240246934A1, “QUINAZOLINE-BASED COMPOUND, COMPOSITION, AND APPLICATION OF QUINAZOLINE-BASED COMPOUND” (BEIJING SCITECH-MQ PHARMACEUTICALS LIMITED, priority 2021, published 2024)
